Data on one substance can be found in patent publication US20180369230A1, “TARGETED SELECTION OF PATIENTS FOR TREATMENT WITH SPECIFIC CORTISTATIN DERIVATIVES” (President and Fellows of Harvard College, priority 2015, published 2018).

Common to all, as to assay: Soft agar growth assay
What all share (assay type): cell-based

In one assay the test system is SK-N-SH. The settings on record: Neuroblastoma, 100 nM. The protocol: (§1) For the 62 cell lines 96 well suspension cell culture plates were prepared. 100 μL of the soft agar bottom layer (0.6% final concentration in complete medium) was poured and left to solidify. 50 μL of the soft agar top layer (0.4% final concentration) containing the corresponding cells and cell number were then added on top, solidified and incubated at 37° C., 10% CO2. After the soft agar had solidified, the test items were added at indicated final concentrations into the inner wells of the plate. Subsequently, the assay was incubated in cell culture incubators for 8 to 14 days. Finally, the assay was developed using Alamar Blue and upon 1-5 h of incubation at 37° C. fluorescence intensity was determined (excitation: 560 nm; emission: 590 nm). As low control, cells were treated with 1E-05M Staurosporine (6fold values). As high control, cells were treated with 0.1% DMSO (solvent control, 6 fold values).
(§2) Raw data were converted into percent soft agar growth relative to high controls (solvent 0.1% DMSO) and low controls (1E-05M Staurosporine), which were set to 100% and 0%, respectively. The results are tabulated in FIGS. 15A, 15B, and 15C and Table 4 below.

The next assay concerns SK-ES-1. The settings on record: SK-ES-1, Osteosarcoma, EWS-FLI1, 100 nM. How it is done:
as §1, §2

The next assay deals with NCI-N87. To be noted: NCI-N87, Gastric cancer, HER2 overexpression, 100 nM. The protocol: as §1, §2
A further assay concerns A498. The settings on record: A498, clear cell renal cell carcinoma, VHL negative, 100 nM. How it is done:
as §1, §2

In the next assay the test system is MKN-45. To be noted: MKN-45, Gastric cancer, MET amplification, 100 nM. The protocol:
as §1, §2

A further assay deals with HCC827. The settings on record: HCC827, Non small cell lung carcinoma, EGFR mutation, 100 nM. How it is done:
as §1, §2

In another assay the test system is MCF-7. The settings on record: MCF-7, Breast cancer, ER-alpha positive, 100 nM. How it is done:
as §1, §2

A further assay relates to SK.BR-3. To be noted: SK.BR-3, Breast cancer, HER2 overexpression, 100 nM. The protocol:
as §1, §2

Another assay deals with Caki-2. The settings on record: Caki-2, clear cell renal cell carcinoma, VHL negative, 100 nM. How it is done: as §1, §2
In a further assay the test system is U87MG. The settings on record: Glioma, inactivating mutations in ETV1, FLI1 and SMC3, 100 nM. How it is done: as §1, §2
The test system of the next assay is SK-N-F1. To be noted: SK-N-F1, Neuroblastoma, 100 nM. The protocol: as §1, §2
Another assay has as its system SK-N-MC. The settings on record: Neuroblastoma, EWS-FLI1, 100 nM. How it is done:
as §1, §2

The next assay relates to T47D. To be noted: Breast cancer, ER-alpha positive, 100 nM. The protocol:
as §1, §2

Cortistatin A: the “% growth rel. to vehicle” value is 29% in the assay with SK-N-SH; 36% in the assay with SK-ES-1; 26% in the assay on NCI-N87; 51% in the assay with A498; 27% with MKN-45; 23% with HCC827. In addition, the “% growth rel. to vehicle” value in the assay with MCF-7 turned out to be 49%; in the assay with SK.BR-3, 22%; with Caki-2, 18%; with U87MG, 36%; in the assay on SK-N-F1, 30%; in the assay with SK-N-MC it was 45%. The “% growth rel. to vehicle” value in the assay on T47D was found to be 48%.
